The values that follow come from ChEMBL document CHEMBL5104195, “Discovery of Orally Bioavailable SOS1 Inhibitors for Suppressing KRAS-Driven Carcinoma” (J Med Chem, 2022).

Each structure is given as a SMILES string.

The target in one data set is SOS1-KRAS (Homo sapiens, UniProt Q07889). As to the kind of experiment: Inhibition of N-terminal His6-tagged human recombinant SOS1(564 to 1049 residues)/human recombinant KRAS G12C mutant incubated for 60 mins by HTRF assay.
The target in data set [1] is T1, Son of sevenless homolog 1 (Homo sapiens, UniProt Q07889).
T1 sequence (Q07889 whole entry): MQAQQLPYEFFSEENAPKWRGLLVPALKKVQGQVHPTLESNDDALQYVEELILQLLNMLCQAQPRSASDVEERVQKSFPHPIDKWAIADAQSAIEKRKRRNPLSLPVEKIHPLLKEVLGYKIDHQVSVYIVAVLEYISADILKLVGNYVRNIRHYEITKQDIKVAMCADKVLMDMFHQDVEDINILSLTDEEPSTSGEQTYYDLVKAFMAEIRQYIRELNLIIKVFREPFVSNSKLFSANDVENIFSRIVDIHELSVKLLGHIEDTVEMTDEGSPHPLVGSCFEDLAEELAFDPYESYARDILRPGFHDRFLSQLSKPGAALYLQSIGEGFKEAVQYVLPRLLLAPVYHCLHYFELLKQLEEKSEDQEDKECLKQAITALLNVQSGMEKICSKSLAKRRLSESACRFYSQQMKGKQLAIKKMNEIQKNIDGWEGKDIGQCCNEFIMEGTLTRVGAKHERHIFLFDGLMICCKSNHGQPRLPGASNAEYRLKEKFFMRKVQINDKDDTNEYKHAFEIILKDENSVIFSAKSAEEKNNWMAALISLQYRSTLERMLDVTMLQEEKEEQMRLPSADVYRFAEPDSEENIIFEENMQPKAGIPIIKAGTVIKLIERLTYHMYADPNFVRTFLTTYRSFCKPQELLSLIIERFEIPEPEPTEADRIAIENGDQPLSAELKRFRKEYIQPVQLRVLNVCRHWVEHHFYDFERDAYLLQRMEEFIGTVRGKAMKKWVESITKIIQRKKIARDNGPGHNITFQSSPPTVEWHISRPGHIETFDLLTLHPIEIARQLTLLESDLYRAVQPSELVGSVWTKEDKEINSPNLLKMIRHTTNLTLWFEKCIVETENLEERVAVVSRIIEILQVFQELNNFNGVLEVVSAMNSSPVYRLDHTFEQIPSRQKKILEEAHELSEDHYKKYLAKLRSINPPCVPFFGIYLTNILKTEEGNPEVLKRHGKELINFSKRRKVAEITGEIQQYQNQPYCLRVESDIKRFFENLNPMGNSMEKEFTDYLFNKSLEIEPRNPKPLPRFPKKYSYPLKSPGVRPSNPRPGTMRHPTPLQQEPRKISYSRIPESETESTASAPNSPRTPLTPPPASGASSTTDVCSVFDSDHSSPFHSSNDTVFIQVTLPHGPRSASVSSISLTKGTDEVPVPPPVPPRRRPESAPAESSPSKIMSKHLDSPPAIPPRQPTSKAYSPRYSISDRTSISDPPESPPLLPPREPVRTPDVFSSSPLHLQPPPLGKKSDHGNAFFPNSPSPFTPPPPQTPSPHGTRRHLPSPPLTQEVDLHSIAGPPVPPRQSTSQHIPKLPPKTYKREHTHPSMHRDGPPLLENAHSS
As to the kind of experiment: Inhibition of SOS1 in human DLD-1 cells assessed as reduction in ERK phosphorylation incubated for 1 hr by fluorescence assay. The format is cell-based.

Data set [2] is described as follows: Elimination rate constant in ICR mouse at 50 mg/kg, po measured up to 24 hrs by LC-MS/MS analysis. Conditions: in vivo.
Data set [3] is described as follows: Half life in ICR mouse at 50 mg/kg, po measured up to 24 hrs by LC-MS/MS analysis. The note with it: in vivo.
A short description of data set [4]: MRT in ICR mouse at 50 mg/kg, po measured up to 24 hrs by LC-MS/MS analysis. The note with it: in vivo.
The nature of data set [5]: in vivo. Conditions: ICR, mouse, po, 50 mg/kg.
Data set [6] is described as follows: in vivo. Conditions: ICR, mouse, po, 50 mg/kg. This is another data set of the same source.
Data set [7] can be described thus: in vivo. The note with it: ICR, mouse, po, 50 mg/kg. This is another data set of the same source.
A short description of data set [8]: Toxicity in BALB/c nude mouse xenografted with human MIA PaCa-21 cells expressing KRAS G12C mutant assessed as animal death at 50 mg/kg, po qd measured on day 21. Conditions: in vivo, 504 h.
The nature of data set [9]: Toxicity in BALB/c nude mouse xenografted with human MIA PaCa-21 cells expressing KRAS G12C mutant assessed as weight loss at 50 mg/kg, po qd measured on day 21. Conditions: in vivo.
Data set [10] in a line: Plasma protein binding in rat at 2 uM preincubated for 1 hr by balanced dialysis based LC-MS/MS analysis.
Data set [11] in a line: Plasma protein binding in mouse at 2 uM preincubated for 1 hr by balanced dialysis based LC-MS/MS analysis.
Data set [12] in a line: Plasma protein binding in dog at 2 uM preincubated for 1 hr by balanced dialysis based LC-MS/MS analysis.
The nature of data set [13]: Plasma protein binding in monkey at 2 uM preincubated for 1 hr by balanced dialysis based LC-MS/MS analysis. Conditions: rhesus monkey.

In the case of `Cc1nc(N[C@H](C)c2cccc(C(F)F)c2F)c2cc3c(cc2n1)OC[C@H]1CN(C(=O)C2(C#N)CC2)CCN31`, the IC50 is 8.4 nM on SOS1-KRAS and 13 nM in data set [1].
In the case of `Cc1nc(N[C@H](C)c2cccc(C(F)F)c2F)c2cc3c(cc2n1)OCC[C@H]1CN(C(=O)C2COC2)CCN31`, the k el at 24 h in data set [2] was 0.000142 s⁻¹. In data set [3], the half-life at 24 h is 1.36 h. In [4], this molecule showed an MRT at 24 h of 1.7 h. Besides, the time to peak (Tmax) at 24 h in “in vivo [5]” came to 0.38 h. In the data set “in vivo [6]”, this molecule displayed a Cmax at 24 h of 885 ng/mL. The exposure (AUC) at 24 h in the data set “in vivo [7]” was determined as 1610 ng·h/mL.
With `Cc1nc(N[C@H](C)c2cccc(C(F)F)c2F)c2cc3c(cc2n1)OCC[C@H]1CN(CC#N)CCN31`, the concentration for half-maximal inhibition (IC50) in data set [1] stood at 70 nM.
The molecule `COCCN1CCN2c3cc4c(N[C@H](C)c5cccc(C(F)F)c5F)nc(C)nc4cc3OCC[C@H]2C1` had a k el at 24 h in data set [2] of 2.64e-05 s⁻¹. This molecule showed a half-life at 24 h in [3] of 7.23 h. The same molecule had a mean residence time MRT at 24 h in data set [4] of 8.31 h. For the same molecule, in “in vivo [5]”, the Tmax at 24 h is 5.67 h. Also, the highest concentration (Cmax) at 24 h in the data set “in vivo [6]” came out at 433 ng/mL. In the data set “in vivo [7]”, this molecule returned an exposure (AUC) at 24 h of 5420 ng·h/mL.
Turning to `Cc1nc(N[C@H](C)c2cccc(C(F)F)c2F)c2cc3c(cc2n1)OCC[C@H]1CN(C)CCN31`, the k el at 24 h in data set [2] was 9.78e-06 s⁻¹. This molecule also had a half-life at 24 h in data set [3] of 20 h. Further, the MRT at 24 h in data set [4] worked out at 9.58 h. Besides, the Tmax at 24 h in the data set “in vivo [5]” was determined as 3.5 h. This molecule registered a Cmax at 24 h in “in vivo [6]” of 191 ng/mL. In the data set “in vivo [7]”, the AUC at 24 h stood at 3250 ng·h/mL.
The molecule `Cc1nc(N[C@H](C)c2cccc(C(F)F)c2F)c2cc3c(cc2n1)OCC[C@H]1CN(C(=O)c2cccnc2)CCN31` gave a k el at 24 h in data set [2] of 0.000135 s⁻¹. Further, the half-life at 24 h in data set [3] is 1.47 h. The MRT at 24 h in data set [4] was found to be 1.78 h. The time to peak (Tmax) at 24 h in the data set “in vivo [5]” came to 0.333 h. The molecule also registered a Cmax at 24 h in the data set “in vivo [6]” of 1580 ng/mL. The molecule further had an AUC at 24 h in “in vivo [7]” of 3180 ng·h/mL.
In data set [2], `Cc1nc(N[C@H](C)c2cccc(C(F)F)c2F)c2cc3c(cc2n1)OCC[C@H]1CN(c2ccnn2C)CCN31` had a k el at 24 h of 7.36e-05 s⁻¹. The molecule also had a half-life at 24 h in [3] of 2.61 h. The MRT at 24 h in [4] was found to be 4.47 h. Also, the Activity entry in data set [8] and in data set [9] was “Non-Toxic” in each case. Also, the fraction unbound at 1 h, 2 µM in [10] was 0.107; in data set [11], 0.079; in [12], 0.01; in data set [13] it was 0.015. Further, in the data set “in vivo [5]”, the time to peak (Tmax) at 24 h is 0.33 h. In addition, in “in vivo [6]”, the Cmax at 24 h was 4690 ng/mL. The AUC at 24 h in “in vivo [7]” came to 48800 ng·h/mL.
For the molecule `Cc1nc(N[C@H](C)c2cccc(C(F)F)c2F)c2cc3c(cc2n1)OCC[C@H]1CN(C(=O)[C@@H]2CCOC2)CCN31`, the k el at 24 h in [2] is 8.39e-05 s⁻¹. In data set [3], this molecule had a half-life at 24 h of 2.29 h. This molecule also gave an MRT at 24 h in data set [4] of 2.89 h. Moreover, the Activity result in [8] and in data set [9] was “Non-Toxic” throughout. In addition, the free fraction (fraction unbound) at 1 h, 2 µM in data set [10] is 0.001; in data set [11], 0.006; in data set [12] it was 0.001; in [13], 0.001. The Tmax at 24 h in “in vivo [5]” was found to be 0.417 h. The same molecule showed a peak concentration (Cmax) at 24 h in “in vivo [6]” of 1450 ng/mL. This molecule displayed an AUC at 24 h in the data set “in vivo [7]” of 7490 ng·h/mL.
Consider `Cc1nc(N[C@H](C)c2cccc(C(F)F)c2F)c2cc3c(cc2n1)OCC[C@H]1CN(CC2COC2)CCN31`, for which the k el at 24 h in [2] was 2.61e-05 s⁻¹. In data set [3], this molecule had a half-life at 24 h of 7.39 h. Also, in data set [4], the MRT at 24 h was found to be 7.64 h. In addition, the Tmax at 24 h in the data set “in vivo [5]” was 3 h. Further, the peak concentration (Cmax) at 24 h in “in vivo [6]” was found to be 645 ng/mL. The molecule also yielded an AUC at 24 h in “in vivo [7]” of 10700 ng·h/mL.
